Data from a compilation of properties of binary mixtures (doi:10.1016/j.jct.2022.106952).

Experiment: xn = mol fraction of the nth substance listed
Details: 101.3 kPa

Q: Which results are given for `CCCC[n+]1ccn(C)c1.F[P-](F)(F)(F)(F)F` + CCCCCCCCN1CCCC1=O?
A: speed of sound (308.15 K, x1 = 1): 1419.8 m/s; speed of sound (313.15 K, x1 = 1): 1408.2 m/s; speed of sound (318.15 K, x1 = 1): 1396.8 m/s; speed of sound (323.15 K, x1 = 1): 1385.6 m/s

Q: What does the source list for `CCCCCCCCN1CCCC1=O` + CCCC[n+]1ccn(C)c1.F[P-](F)(F)(F)(F)F?
A: speed of sound (303.15 K, x2 = 0): 1433.6 m/s; speed of sound (303.15 K, x2 = 0.0531): 1430 m/s; speed of sound (303.15 K, x2 = 0.1034): 1425.4 m/s; speed of sound (303.15 K, x2 = 0.1513): 1421.4 m/s; speed of sound (303.15 K, x2 = 0.2034): 1417.6 m/s; speed of sound (303.15 K, x2 = 0.3009): 1412.1 m/s; speed of sound (303.15 K, x2 = 0.5996): 1407.7 m/s; speed of sound (303.15 K, x2 = 0.6991): 1410.4 m/s; speed of sound (303.15 K, x2 = 0.8029): 1415.4 m/s; speed of sound (303.15 K, x2 = 0.8927): 1421.5 m/s; speed of sound (303.15 K, x2 = 0.9513): 1426.6 m/s; speed of sound (308.15 K, x2 = 0): 1416.3 m/s; speed of sound (308.15 K, x2 = 0.0531): 1413.2 m/s; speed of sound (308.15 K, x2 = 0.1034): 1408.9 m/s; speed of sound (308.15 K, x2 = 0.1513): 1405.2 m/s; speed of sound (308.15 K, x2 = 0.2034): 1401.8 m/s; speed of sound (308.15 K, x2 = 0.405): 1393.9 m/s; speed of sound (308.15 K, x2 = 0.5042): 1393.1 m/s; speed of sound (308.15 K, x2 = 0.6991): 1397.4 m/s; speed of sound (308.15 K, x2 = 0.8029): 1402.9 m/s; speed of sound (308.15 K, x2 = 0.8451): 1405.7 m/s; speed of sound (308.15 K, x2 = 0.8927): 1409.4 m/s; speed of sound (308.15 K, x2 = 0.9513): 1414.7 m/s; speed of sound (313.15 K, x2 = 0): 1399.1 m/s; speed of sound (313.15 K, x2 = 0.0531): 1396.4 m/s; speed of sound (313.15 K, x2 = 0.1034): 1392.5 m/s; speed of sound (313.15 K, x2 = 0.1513): 1389.2 m/s; speed of sound (313.15 K, x2 = 0.2034): 1386.2 m/s; speed of sound (313.15 K, x2 = 0.3009): 1382 m/s; speed of sound (313.15 K, x2 = 0.405): 1379.6 m/s; speed of sound (313.15 K, x2 = 0.5042): 1379.4 m/s; speed of sound (313.15 K, x2 = 0.6991): 1384.6 m/s; speed of sound (313.15 K, x2 = 0.8029): 1390.6 m/s; speed of sound (313.15 K, x2 = 0.8927): 1397.5 m/s; speed of sound (313.15 K, x2 = 0.9513): 1403 m/s; speed of sound (318.15 K, x2 = 0): 1382.1 m/s; speed of sound (318.15 K, x2 = 0.0531): 1379.8 m/s; speed of sound (318.15 K, x2 = 0.1034): 1376.3 m/s; speed of sound (318.15 K, x2 = 0.1513): 1373.3 m/s; speed of sound (318.15 K, x2 = 0.2034): 1370.7 m/s; speed of sound (318.15 K, x2 = 0.3009): 1367.1 m/s; speed of sound (318.15 K, x2 = 0.405): 1365.4 m/s; speed of sound (318.15 K, x2 = 0.5042): 1365.8 m/s; speed of sound (318.15 K, x2 = 0.5996): 1367.9 m/s; speed of sound (318.15 K, x2 = 0.6991): 1372.1 m/s; speed of sound (318.15 K, x2 = 0.8451): 1381.7 m/s; speed of sound (318.15 K, x2 = 0.9513): 1391.4 m/s; speed of sound (323.15 K, x2 = 0): 1365.2 m/s; speed of sound (323.15 K, x2 = 0.0531): 1363.3 m/s; speed of sound (323.15 K, x2 = 0.1034): 1360.2 m/s; speed of sound (323.15 K, x2 = 0.2034): 1355.3 m/s; speed of sound (323.15 K, x2 = 0.3009): 1352.4 m/s; speed of sound (323.15 K, x2 = 0.405): 1351.4 m/s; speed of sound (323.15 K, x2 = 0.5042): 1352.3 m/s; speed of sound (323.15 K, x2 = 0.6991): 1359.6 m/s; speed of sound (323.15 K, x2 = 0.8029): 1366.5 m/s; speed of sound (323.15 K, x2 = 0.8451): 1369.9 m/s; speed of sound (323.15 K, x2 = 0.8927): 1374.2 m/s; speed of sound (323.15 K, x2 = 0.9513): 1380.1 m/s
